Results reported in US7759345B2, “Antitumoral derivatives of ET-743” (priority 2001, dated 2010).
pIC50: −log10 of the molar value.

Columns and labels:
P-388 = assay: Inhibition of cell growth by counting cells, P-388; assay type: cell-based, mouse; conditions: Mus musculus, P388, 72 h; three days of incubation; read-out: IC50 (molar) P-388
Method in brief: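 IC50 is the sample concentration halving growth, taken from dose-response curves of cell counts (Coulter counter, duplicate wells) relative to drug-free cultures. P-388 (DBA/2 mouse lymphoid neoplasm) cells plated at 1×10^4 per well in EMEM with 5% FCS plus test sample.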

A-549 = assay: Inhibition of cell growth by counting cells, A-549; assay type: cell-based, human; conditions: Homo sapiens, A549, 72 h; three days of incubation; read-out: IC50 (molar) A-549
Method in brief: (§1)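 Counts are net cells per well, averaged from duplicate wells, obtained by Coulter counting after trypsinization following 72 h of exposure at 37 °C. Seeding was 1×10^4 cells per well in EMEM/5% FCS with varied sample concentrations, alongside untreated growth controls. IC50 values derive from dose-response curves of % growth.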

HT-29 = assay: Inhibition of cell growth by counting cells, HT-29; assay type: cell-based, human; conditions: Homo sapiens, HT-29, 72 h; three days of incubation; read-out: IC50 (molar) HT-29
Method in brief: as §1

MEL-28 = assay: Inhibition of cell growth by counting cells, MEL-28; assay type: cell-based, human; conditions: Homo sapiens, SK-MEL-28, 72 h; three days of incubation; read-out: IC50 (molar) MEL-28
Method in brief: as §1

DU-145 = assay: Inhibition of cell growth by counting cells, DU-145; assay type: cell-based, human; conditions: Homo sapiens, DU-145, 72 h; three days of incubation; read-out: IC50 (molar) DU-145
Method in brief: as §1

Text for Heart: (§2) Toxicity was asssessed by the methods reported in Toxicology in Vitro, 15 (2001) 571-577, J. Luber Narod et al.: “Evaluation of the use of in vitro methodolodies as tools for screening new compounds for potential in vivo toxicity”.
Text for Kidney: as §2
Text for Liver: as §2
Text for Myelo: as §2
Text for Skeletal: as §2

| SMILES | pIC50 (P-388) | pIC50 (A-549) | pIC50 (HT-29) | pIC50 (MEL-28) | pIC50 (DU-145) | Toxicity Data Liver (Liver) | Toxicity Data Heart (Heart) | Toxicity Data Myelo (Myelo) | Toxicity Data Skeletal (Skeletal) | Toxicity Data Kidney (Kidney) |
| --- | --- | --- | --- | --- | --- | --- | --- | --- | --- | --- |
| CCCCCCCC(=O)Oc1cc2c(cc1OC)[C@@]1(CS[C@@H]3c4c(OC(C)=O)c(C)c5c(c4[C@H](COC1=O)N1C3[C@H]3c4c(cc(C)c(OC)c4O)C[C@@H]([C@@H]1O)N3C)OCO5)NCC2 (stereo partly drawn) [Compound 59] | 9.95 | 9.95 | 9.95 | 9.95 | 9.95 | 2.53E-08 | 8.14E-08 | 4.18E-08 | 1.46E-07 | 2.87E-08 |
| COc1cc2c(cc1OC(=O)/C=C/c1ccccc1)CCN[C@]21CS[C@@H]2c3c(OC(C)=O)c(C)c4c(c3[C@H](COC1=O)N1C2[C@H]2c3c(cc(C)c(OC)c3O)C[C@@H]([C@@H]1O)N2C)OCO4 (stereo partly drawn) [Compound 61] | 9.95 | 9.95 | 9.95 | 9.95 | 9.95 | 1.32E-08 | 2.76E-08 | 1.69E-08 | 1.47E-08 | 5.12E-09 |
| C=CCOC(=O)Oc1cc2c(cc1OC)[C@@]1(CS[C@@H]3c4c(OC(C)=O)c(C)c5c(c4[C@H](COC1=O)N1C3[C@H]3c4c(cc(C)c(OC)c4O)C[C@@H]([C@@H]1O)N3C)OCO5)NCC2 (stereo partly drawn) [Compound 64] | 9.93 | 9.23 | 9.23 | 9.23 | – | 2.57E-08 | 5.50E-08 | 1.93E-08 | 1.66E-09 | 1.77E-08 |
| COc1cc2c(cc1OC(=O)OCc1ccccc1)CCN[C@]21CS[C@@H]2c3c(OC(C)=O)c(C)c4c(c3[C@H](COC1=O)N1C2[C@H]2c3c(cc(C)c(OC)c3O)C[C@@H]([C@@H]1O)N2C)OCO4 (stereo partly drawn) [Compound 65] | 9.95 | 9.95 | 9.95 | 9.95 | 9.95 | 5.30E-09 | 9.00E-09 | 1.70E-08 | 3.77E-09 | 3.15E-09 |
| C=CCOc1cc2c(cc1OC)[C@@]1(CS[C@@H]3c4c(OC(C)=O)c(C)c5c(c4[C@H](COC1=O)N1C3[C@H]3c4c(cc(C)c(OC)c4O)C[C@@H]([C@@H]1O)N3C)OCO5)NCC2 (stereo partly drawn) [Compound 70] | 9.90 | 9.90 | 9.90 | 9.90 | 9.90 | 3.16E-08 | 2.20E-07 | 6.61E-08 | 3.67E-08 | 1.07E-07 |
| COc1cc2c(cc1OC(=O)OC(C)(C)C)CCN[C@]21CS[C@@H]2c3c(OC(C)=O)c(C)c4c(c3[C@H](COC1=O)N1C2[C@H]2c3c(cc(C)c(OC)c3OC(=O)OC(C)(C)C)C[C@@H]([C@@H]1O)N2C)OCO4 (stereo partly drawn) [Compound 86] | 9.28 | 9.28 | 9.28 | 9.28 | 9.28 | 1.47E-08 | 8.16E-08 | 8.35E-08 | 3.88E-08 | 1.37E-08 |
| CCN1CCc2cc(O)c(OC)cc2[C@@]12CS[C@@H]1c3c(OC(C)=O)c(C)c4c(c3[C@H](COC2=O)N2C1[C@H]1c3c(cc(C)c(OC)c3O)C[C@@H]([C@@H]2O)N1C)OCO4 (stereo partly drawn) [Compound 94] | 9.82 | 9.82 | 9.82 | 9.82 | – | 1.24E-08 | 6.66E-08 | 1.13E-08 | 1.44E-09 | 3.49E-09 |
| COc1cc2c(cc1OC(=O)C(F)(F)F)CCN[C@]21CS[C@@H]2c3c(OC(C)=O)c(C)c4c(c3[C@H](COC1=O)N1C2[C@H]2c3c(cc(C)c(OC)c3O)C[C@@H]([C@@H]1O)N2C)OCO4 (stereo partly drawn) [Compound 104] | 9.93 | 9.23 | 9.23 | 9.23 | 9.23 | 4.16E-09 | 3.44E-09 | 1.93E-08 | 4.10E-07 | 2.67E-09 |
| COc1cc2c(cc1O)CCN[C@]21CS[C@@H]2c3c(OC(=O)/C=C/c4ccccc4)c(C)c4c(c3[C@H](COC1=O)N1C2[C@H]2c3c(cc(C)c(OC)c3O)C[C@@H]([C@@H]1O)N2C)OCO4 (stereo partly drawn) [Compound 161] | 9.93 | 9.93 | 9.93 | 9.93 | 9.93 | 8.58E-09 | 1.13E-08 | 2.27E-08 | 1.65E-08 | 2.60E-09 |
| C=CCOc1c(C)c2c(c3c1[C@H]1SC[C@]4(NCCc5cc(O)c(OC)cc54)C(=O)OC[C@@H]3N3C1[C@H]1c4c(cc(C)c(OC)c4O)C[C@@H]([C@@H]3O)N1C)OCO2 (stereo partly drawn) [Compound 183] | – | 9.88 | 9.88 | – | – | 3.03E-08 | 3.72E-08 | 2.39E-08 | 2.67E-08 | 6.72E-03 |
| CCCCCCCC(=O)Oc1cc2c(cc1OC)[C@@]1(CS[C@@H]3c4c(OC(C)=O)c(C)c5c(c4[C@H](COC1=O)N1C3[C@@H]3N[C@@H](Cc4cc(C)c(OC)c(O)c43)[C@@H]1O)OCO5)NCC2 (stereo partly drawn) [Compound 213] | – | 9.94 | 9.94 | – | – | 3.93E-08 | 1.82E-07 | 2.70E-08 | 1.72E-07 | 1.48E-08 |
